Assay results reported in ChEMBL document CHEMBL1150436 (Bioorg Med Chem Lett, 1995).
pKi: −log10 of the molar value.

Experiments:
[1] = target: T1, 5-hydroxytryptamine receptor 1A (Rattus norvegicus, UniProt P19327); assay: Ability to displace [3H]-8-OH-DPAT from serotonergic 5-hydroxytryptamine 1A receptor
T1 sequence (P19327 whole entry): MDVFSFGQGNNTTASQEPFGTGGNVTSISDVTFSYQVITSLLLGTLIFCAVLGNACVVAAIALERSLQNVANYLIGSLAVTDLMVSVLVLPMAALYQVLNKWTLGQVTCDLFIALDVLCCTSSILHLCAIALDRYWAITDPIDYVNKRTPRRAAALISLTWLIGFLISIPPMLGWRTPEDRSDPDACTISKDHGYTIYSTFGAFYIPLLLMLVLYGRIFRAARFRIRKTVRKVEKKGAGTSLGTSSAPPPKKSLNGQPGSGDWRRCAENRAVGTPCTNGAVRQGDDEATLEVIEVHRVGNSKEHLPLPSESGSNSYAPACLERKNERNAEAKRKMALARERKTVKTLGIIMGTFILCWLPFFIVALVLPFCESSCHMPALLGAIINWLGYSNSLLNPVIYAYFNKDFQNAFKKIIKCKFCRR

D(2) dopamine receptor [2] = target: T2, D(2) dopamine receptor (Rattus norvegicus, UniProt P61169); assay: Ability to displace [3H]spiperone from D2 dopamine receptor isolated from the striata of male Wistar rats
[3] = target: T3, Serotonin 2 (5-HT2) receptor (Rattus norvegicus, UniProt P30994+P08909+P14842); assay: Ability to displace [3H]ketanserin from serotonergic 5-hydroxytryptamine 2 receptor; assay type: protein assay
D(2) dopamine receptor [4] = target: T2, D(2) dopamine receptor; assay: Compound was evaluated for its ability to displace [3H]spiperone from D2 dopamine receptor isolated from the striata of male Wistar rats
[5] = target: T3, Serotonin 2 (5-HT2) receptor; assay: Compound was evaluated for its ability to displace [3H]ketanserin from serotonergic 5-hydroxytryptamine 2 receptor; assay type: protein assay
[6] = target: T1, 5-hydroxytryptamine receptor 1A; assay: Compound was evaluated for its ability to displace [3H]8-OH-DPAT from serotonergic 5-hydroxytryptamine 1A receptor

T2 sequence (P61169 whole entry): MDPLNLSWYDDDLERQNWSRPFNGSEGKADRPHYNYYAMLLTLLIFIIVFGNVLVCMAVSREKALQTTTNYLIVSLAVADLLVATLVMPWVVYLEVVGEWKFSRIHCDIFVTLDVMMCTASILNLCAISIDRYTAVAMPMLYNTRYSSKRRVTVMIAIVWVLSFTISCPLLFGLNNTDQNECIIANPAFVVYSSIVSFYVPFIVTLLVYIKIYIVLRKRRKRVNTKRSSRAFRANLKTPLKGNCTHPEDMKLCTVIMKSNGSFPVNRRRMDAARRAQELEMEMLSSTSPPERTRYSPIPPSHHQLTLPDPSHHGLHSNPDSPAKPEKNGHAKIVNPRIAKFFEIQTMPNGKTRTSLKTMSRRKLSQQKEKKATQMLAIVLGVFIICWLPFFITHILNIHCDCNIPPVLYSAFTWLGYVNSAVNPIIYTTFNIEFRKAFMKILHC

**Q.** With `CCCCN1CCC[C@@H]1CNC(=O)c1cc(SC)cc2c1OCCN2C` as the compound, how does the pKi [1] read?
**A.** 6.92

**Q.** And the pKi (D(2) dopamine receptor [2])?
**A.** 7.77

**Q.** What about the Ki [3] of the same compound?
**A.** 22 nM

**Q.** Which results are given for `CN1CCOc2c(C(=O)NC[C@@H]3CCCN3Cc3ccccc3)cc(Cl)cc21`?
**A.** pKi [1]: 6.66; pKi (D(2) dopamine receptor [2]): 6.51; Ki [3]: 420 nM

**Q.** Which results are given for `CCCCCCCCCN1CCC[C@@H]1CNC(=O)c1cc(Cl)cc2c1OCC(=O)N2C`?
**A.** pKi [1]: < 6.00; pKi (D(2) dopamine receptor [2]): < 6.00; Ki [3]: > 1000 nM

**Q.** Which results are given for `CCN1CCC[C@@H]1CNC(=O)c1cc(Cl)cc2c1OCC2`?
**A.** pKi [1]: < 6.00; pKi (D(2) dopamine receptor [2]): < 6.00; Ki [3]: > 1000 nM

**Q.** With `CCN1CCC[C@H]1CNC(=O)c1cc(Cl)cc2c1OCC2` as the compound, how does the pKi [1] read?
**A.** < 6.00

**Q.** And the pKi (D(2) dopamine receptor [2])?
**A.** 8.19

**Q.** And the Ki [3]?
**A.** > 1000 nM

**Q.** `CCN1CCC[C@H]1CNC(=O)c1cc(Cl)cc2c1OCCN2C` was tested. Which pKi [1] did it give?
**A.** < 6.00

**Q.** And the pKi (D(2) dopamine receptor [2])?
**A.** 7.80

**Q.** What about the Ki [3] of the same compound?
**A.** > 1000 nM

**Q.** Which results are given for `CCCCCCCCCN1CCC[C@@H]1CNC(=O)c1cc(S(N)(=O)=O)ccc1OC`?
**A.** pKi [1]: 7.80; pKi (D(2) dopamine receptor [2]): 7.04; Ki [3]: 3700 nM

**Q.** How did the pKi [1] turn out when `CCCCN1CCC[C@H]1CNC(=O)c1cc(SC)cc2c1OCCN2C` was run?
**A.** 7.72

**Q.** What about the pKi (D(2) dopamine receptor [2]) of the same compound?
**A.** 8.44

**Q.** What about the Ki [3] of the same compound?
**A.** 2100 nM

**Q.** With `CCCCCCCCCN1CCC[C@H]1CNC(=O)c1cc(Cl)cc2c1OCC2` as the compound, how does the pKi [1] read?
**A.** 6.24

**Q.** What about the pKi (D(2) dopamine receptor [2]) of the same compound?
**A.** < 6.00

**Q.** And the Ki [3]?
**A.** > 1000 nM

**Q.** What does the source list for `CCCCN1CCC[C@@H]1CNC(=O)c1cc(Cl)cc2c1OCC2`?
**A.** pKi [1]: 6.48; Ki [3]: 400 nM

**Q.** What does the source list for `CCCCN1CCCC1CNC(=O)c1cccc2c1OCCN2C` (centres undefined)?
**A.** pKi (D(2) dopamine receptor [4]): 6.57; Ki [5]: 2200 nM; pKi [6]: 6.77

**Q.** How did the pKi [1] turn out when `CN1CCOc2c(C(=O)NC[C@H]3CCCN3Cc3ccccc3)cc(Cl)cc21` was run?
**A.** 7.68

**Q.** What about the pKi (D(2) dopamine receptor [2]) of the same compound?
**A.** 6.68

**Q.** And the Ki [3]?
**A.** 99 nM

**Q.** How did the pKi [1] turn out when `CCN1CCC[C@@H]1CNC(=O)c1cc(Cl)cc2c1OCCN2C` was run?
**A.** < 6.00

**Q.** And the pKi (D(2) dopamine receptor [2])?
**A.** < 6.00

**Q.** And the Ki [3]?
**A.** > 1000 nM

**Q.** `CCCCN1CCC[C@H]1CNC(=O)c1cc(Cl)cc2c1OCC2` was tested. Which pKi [1] did it give?
**A.** 7.74

**Q.** And the Ki [3]?
**A.** 3300 nM

**Q.** What does the source list for `CCCCCCCCCN1CCC[C@@H]1CNC(=O)c1cc(Cl)cc2c1OCCN2C`?
**A.** pKi (D(2) dopamine receptor [4]): 6.16; Ki [5]: > 1000 nM; pKi [6]: < 6.00

**Q.** `CSc1cc(C(=O)NC[C@@H]2CCCN2Cc2ccccc2)c2c(c1)N(C)CCO2` was tested. Which pKi [1] did it give?
**A.** 6.06

**Q.** And the pKi (D(2) dopamine receptor [2])?
**A.** 6.57

**Q.** What about the Ki [3] of the same compound?
**A.** 550 nM

**Q.** For `CCCCN1CCC[C@H]1CNC(=O)c1cc(S(N)(=O)=O)ccc1OC`, which Ki [5] is on record?
**A.** > 1000 nM

**Q.** What about the pKi [6] of the same compound?
**A.** 5.92

**Q.** How did the pKi [1] turn out when `CSc1cc(C(=O)NC[C@H]2CCCN2Cc2ccccc2)c2c(c1)N(C)CCO2` was run?
**A.** 7.77

**Q.** And the pKi (D(2) dopamine receptor [2])?
**A.** 8.38

**Q.** And the Ki [3]?
**A.** 27 nM

**Q.** Which Ki [5] does the source give for `CCCCN1CCC[C@@H]1CNC(=O)c1cc(S(N)(=O)=O)ccc1OC` here?
**A.** > 1000 nM

**Q.** What about the pKi [6] of the same compound?
**A.** 5.35

**Q.** With `CCCCCCCCCN1CCC[C@@H]1CNC(=O)c1cc(Cl)cc2c1OCC2` as the compound, how does the pKi [1] read?
**A.** 6.48

**Q.** What about the pKi (D(2) dopamine receptor [2]) of the same compound?
**A.** 7.08

**Q.** What about the Ki [3] of the same compound?
**A.** > 1000 nM

**Q.** How did the pKi [1] turn out when `CCN1CCC[C@@H]1CNC(=O)c1cc(Cl)cc2c1OCC(=O)N2C` was run?
**A.** < 6.00

**Q.** What about the pKi (D(2) dopamine receptor [2]) of the same compound?
**A.** < 6.00

**Q.** What about the Ki [3] of the same compound?
**A.** > 1000 nM

**Q.** How did the pKi [1] turn out when `CCN1CCC[C@H]1CNC(=O)c1cc(Cl)cc2c1OCC(=O)N2C` was run?
**A.** < 6.00

**Q.** And the pKi (D(2) dopamine receptor [2])?
**A.** < 6.00

**Q.** And the Ki [3]?
**A.** > 1000 nM

**Q.** `CCCCN1CCC[C@@H]1CNC(=O)c1cc(Cl)cc2c1OCCN2C` was tested. Which pKi (D(2) dopamine receptor [4]) did it give?
**A.** 6.20

**Q.** And the pKi [6]?
**A.** 6.37

**Q.** What does the source list for `CN1CCOc2c(C(=O)NC[C@H]3CCCN3CCc3ccccc3)cc(Cl)cc21`?
**A.** pKi [1]: 7.46; pKi (D(2) dopamine receptor [2]): 7.24; Ki [3]: 1700 nM

**Q.** `CCCCN1CCCC1CNC(=O)c1cc(S(N)(=O)=O)cc2c1OCCN2C` (centres undefined) was tested. Which pKi (D(2) dopamine receptor [4]) did it give?
**A.** 6.17

**Q.** What about the Ki [5] of the same compound?
**A.** 3000 nM

**Q.** What about the pKi [6] of the same compound?
**A.** 6.35

**Q.** How did the pKi [1] turn out when `CCCCCCCCCN1CCC[C@H]1CNC(=O)c1cc(S(N)(=O)=O)ccc1OC` was run?
**A.** 7.09

**Q.** What about the pKi (D(2) dopamine receptor [2]) of the same compound?
**A.** 6.74

**Q.** And the Ki [3]?
**A.** 2300 nM

**Q.** How did the pKi [1] turn out when `CN1CCOc2c(C(=O)NC[C@@H]3CCCN3CCc3ccccc3)cc(Cl)cc21` was run?
**A.** 8.00

**Q.** And the pKi (D(2) dopamine receptor [2])?
**A.** 6.10

**Q.** With `CCCCN1CCC[C@@H]1CNC(=O)c1cc(Cl)cc2c1OCC(=O)N2C` as the compound, how does the pKi [1] read?
**A.** < 6.00

**Q.** What about the pKi (D(2) dopamine receptor [2]) of the same compound?
**A.** < 6.00

**Q.** And the Ki [3]?
**A.** > 1000 nM

**Q.** With `CCCCN1CCC[C@H]1CNC(=O)c1cc(Cl)cc2c1OCCN2C` as the compound, how does the pKi (D(2) dopamine receptor [4]) read?
**A.** 7.92

**Q.** And the pKi [6]?
**A.** 7.47

**Q.** How did the pKi (D(2) dopamine receptor [4]) turn out when `CCCCCCCCCN1CCC[C@H]1CNC(=O)c1cc(Cl)cc2c1OCCN2C` was run?
**A.** 6.12

**Q.** What about the Ki [5] of the same compound?
**A.** > 1000 nM

**Q.** And the pKi [6]?
**A.** 6.55

**Q.** `CCCCCCCCCN1CCC[C@H]1CNC(=O)c1cc(Cl)cc2c1OCC(=O)N2C` was tested. Which pKi [1] did it give?
**A.** < 6.00

**Q.** And the pKi (D(2) dopamine receptor [2])?
**A.** < 6.00

**Q.** What about the Ki [3] of the same compound?
**A.** > 1000 nM

**Q.** How did the pKi [1] turn out when `CCCCN1CCC[C@H]1CNC(=O)c1cc(Cl)cc2c1OCC(=O)N2C` was run?
**A.** < 6.00

**Q.** And the pKi (D(2) dopamine receptor [2])?
**A.** < 6.00

**Q.** What about the Ki [3] of the same compound?
**A.** > 1000 nM
